Experimental data as given in paper PMC8121762, “Peptidomics of enteroendocrine cells and characterisation of potential effects of a novel preprogastrin derived-peptide on glucose tolerance in lean mice” (Peptides, 2021).
Entries after “also recorded” stand apart in the source; their conditions may differ. Where a SMILES comes first, the peptide text is derived from it. [ ]: non-standard residue; d: D form. pGlu = O=C1CC[C@@H](C(=O)O)N1

Tests used:
[1] = test system: diet-induced obese mice (DIO); experiment: Osmotic pump study 3: IP GTT, OGTT and ITT in diet-induced obese mice; format: in vivo, mouse; settings: vs vehicle
Procedure: (§1) Three studies were performed to assess the in vivo efficacy of the ChgA 435−462a and Gast p59−79 (see Figure legends for specifics of each study). Peptides were administered by osmotic pumps implanted subcutaneously under isoflurane anaesthesia. Food intake was assessed using BioDaq (Research Diets) automated food intake cages. Intraperitoneal (IP) glucose tolerance tests (GTT) were performed by administering a 2 g/kg challenge of glucose and measuring blood glucose levels from the tail vein whereas oral GTT (OGTT) were performed using 1 g/kg glucose challenge. Insulin tolerance tests (ITT) were performed by administering a 0.75 U/kg dose of insulin IP to the mice and assessing blood glucose levels at 15, 30, 45, 60, 90 and 120 min post-insulin challenge.
(§2) Fig. 7 In vivo characterisation of novel peptides. (A-C) PK data of ChgA 435-462a, Gast p59-79, Sst 25-36. (D-G) Data from 1st osmotic pump study where n = 5/group. […] Body weights (E) and food intake (D) were measured throughout the study. Week 0 and day -7 represent baseline data prior to treatment onset. Glucose tolerance was assessed every 7 days after surgery via an IP GTT using a 2 g/kg glucose challenge. Results from IP GTT on day 28 shown in (F, G). Statistical analysis performed using Kruskal-Wallis test with post-hoc Dunn tests. (H, I) Results from osmotic pump study 2 where n = 8/group. Mice singly housed and infused with either Gast p59-79 or vehicle for 7 days. 2 g/kg IP GTT performed on day 7 and results shown in H and I. Statistical analysis performed using T test. (J-P) Results from osmotic pump study 3 where n = 7/group. Mice singly housed and infused with either Gast p59-79 or vehicle for 7 days. 2 g/kg IP GTT performed on day 7 (J, K) and 1 g/kg OGTT performed on day 14 (L, M). 0.75 U/kg ITT performed on day 21 (N, O). Body weights vs AUC during ITT on day 21 (P). Error bars represent SD. *P < 0.05, **p < 0.01, ***p < 0.005.

[2] = test system: primary mouse islets; experiment: Islet secretion studies; format: cell-based; settings: 100 nM peptide, 1 or 16.7 mM glucose, 45 min at 37 °C, LC–MS/MS, n = 9 per group, Mann-Whitney U test
Procedure: Mice were culled by cervical dislocation and the pancreas inflated by […] injection of a 0.75 mg/mL collagenase V (Sigma-Aldrich) solution in HBSS before removal of the pancreas. The pancreas was incubated at 37 °C for 12 min to liberate islets. The digested tissue was washed in HBSS with 0.1 % BSA before islets were hand-picked under a light microscope. Islets were rested for 1 h by incubating at 37 °C in Krebs’s ringer buffer (KRB, 129 mM NaCl, 2 mM NaHCO3, 4.8 mM KCl, 1.2 mM KH2PO4, 2.5 mM CaCl2, 1.2 mM MgSO4, 10 mM HEPES and adjusted to pH 7.4 with 1 M NaOH.) with 0.1 % BSA and 5.5 mM glucose. Ten size matched islets were then transferred to a 2 mL protein LoBind Eppendorf tubes for 45 min at 37 °C with KRB + 0.001% BSA + one of the following: 1 mM glucose, 16.7 mM glucose, 1 mM glucose + 100 nM Gast p59−79 or 16.7 mM glucose + 100 nM Gast p59−79. At the end of the incubation the supernatant was removed and snap frozen. On the day of analysis all supernatants were defrosted, acidified with 30 μL of 1% FA (aq) (v/v) and extracted with SPE.
Peptides were quantified on as in section 2.8.3. Table 2 details the peptides quantified as well as their product ions, precursor ions, collision energies and dwell times.
Fig. 9 Effect of Gast p59-79 on glucagon (A), insulin-1 (B) and SST-14 (C) secretion from isolated mouse islets. Data represents n = 9 per group. Statistical analysis was performed using a Mann-Whitney U test. Data expressed as peak area normalised to islet number.

[3] = test system: lean mice; experiment: 1st osmotic pump study: 28-day infusion, body weight, food intake, weekly IP GTT; format: in vivo, mouse; settings: n = 5/group
Procedure: as §1
as §2, with “Results from IP GTT on day 28 shown in (F, G).” left out, “(H, I) Results from osmotic pump study 2 where n = 8/group.” left out, “2 g/kg IP GTT performed on day 7 and results shown in H and I. Statistical analysis performed using T test. (J-P) Results from osmotic pump study 3 where n = 7/group.” left out

Structure (SMILES): CC[C@H](C)[C@H](NC(=O)[C@H](Cc1ccccc1)NC(=O)[C@H](Cc1c[nH]cn1)NC(=O)[C@H](CCC(N)=O)NC(=O)[C@@H]1CCCN1C(=O)CNC(=O)[C@H](CCC(N)=O)NC(=O)[C@@H]1CCCN1C(=O)CNC(=O)[C@H](CC(C)C)NC(=O)[C@@H]1CCC(=O)N1)C(=O)N[C@@H](C)C(=O)N[C@@H](CC(=O)O)C(=O)N[C@@H](CC(C)C)C(=O)N[C@@H](CO)C(=O)N[C@@H](CCCCN)C(=O)N[C@@H](CCCCN)C(=O)N[C@@H](CCC(N)=O)C(=O)N[C@@H](CCCNC(=N)N)C(=O)N1CCC[C@H]1C(=O)N[C@@H](CCCNC(=N)N)C(=O)O [Gast p59−79] ([pGlu]LGPQGPQHFIADLSKKQRPR-OH; C-terminus assumed)
- AUC during ITT ([1]; 0.75 U/kg ITT day 21, n = 7/group, significant effect of body weight on AUC (p = 0.009), two-way ANOVA): also evident in the AUCs (p = 0.011)
- blood glucose levels in ITT ([1]; 0.75 U/kg insulin IP on day 21, n = 7/group, confounded by body weight): differed at 90 and 120 min post-insulin challenge; also recorded: appeared to slow glucose normalisation following an ITT
- glucose tolerance (IP GTT and OGTT) in DIO mice ([1]; osmotic pump, 2 g/kg IP GTT day 7, 1 g/kg OGTT day 14, n = 7/group, confounded by weight loss): did not suggest that Gast p59−79 affected glucose tolerance
- SST-14 secretion from isolated islets [2]: No significant effect
- glucagon secretion from isolated islets [2]: No significant effect
- insulin-1 secretion from isolated islets [2]: No significant effect
- food intake compared with controls ([3]; 6-8 week old male mice, BioDAQ cages, osmotic pump 28 days, ChgA 435-462a 0.3, Gast p59-79 0.8, exenatide 0.03 mg/kg/day, vs PBS): No significant differences
- body weight compared with controls ([3]; 6-8 week old male mice, osmotic pump 28 days, ChgA 435-462a 0.3, Gast p59-79 0.8, exenatide 0.03 mg/kg/day, vs PBS): No significant differences
- IP GTT AUC analyses ([3]; lean male mice, Gast p59-79 0.8 mg/kg/day, IP GTT 2 g/kg, Kruskal-Wallis with Dunn tests): did not reach significance
- glucose tolerance in IP GTT (blood glucose) ([3]; lean male mice, osmotic pump 28 days, IP GTT 2 g/kg glucose every 7 days, ChgA 435-462a 0.3, Gast p59-79 0.8, exenatide 0.03 mg/kg/day, vs PBS): Small but significant improvements in individual time point glucose levels
